Reference: US10913933B2, “Bioengineered liver constructs and methods relating thereto” (Wake Forest University Health Sciences, priority 2013, dated 2021)

Test system: bioengineered liver organoids
Conditions: human, 48 h
Protocol: For hepatocyte functional analysis, culture medium was collected after the three week incubation. The media was stored at −80° C. until it was used for analysis. For analyzing albumin synthesis, albumin ELISA assay (Bethyl Laboratories Inc.) was carried out on each samples in triplicates. The albumin concentrations were normalized per mg of DNA. The media was also analyzed in the same fashion for urea secretion using a Quantichrome™ Urea Assay Kit (BioAssay Systems, Inc.). […] After 48 hours, media samples were collected and analyzed by mass spectrometry (FIGS. 3C and 3D), and compared with standards of individual metabolites (FIGS. 3A and 3B).
In a second experiment, the liver organoids were prepared as described above in Example 1, Section A using LPC seeding and maintenance media. Alternatively, the organoids can be prepared using minimal LPC medium or hFLP medium instead. After seeding with hFLPCs, the discs were cultured for 3 weeks, with harvesting of cells at 1 week and 3 weeks for immunohistochemical and molecular analysis. Assays assessing albumin and urea synthesis and IHC analyses were performed as described above. Gene expression analyses were performed by RT-PCR after harvesting the organoids. Drug metabolism activity in the organoids was assessed after 1 week and 3 weeks of culturing. […] After 3, 6, 12, and 24 hours, media samples were collected and analyzed by mass spectrometry.

Compound: CCOc1ccc2ccc(=O)oc2c1 [7-ethoxycoumarin]
- Phase-1 metabolites found in media: 7-hydroxycoumarin
